# Test results published in patent US9975930B2, “Lantibiotic derivatives and process for their preparation” (NAICONS S.r.l., priority 2012, dated 2018).
# Tests used:
# Assay in all cases: MIC by broth microdilution
# [1] = tested on: E. faecalis VanS; type: cell-based; conditions: code 559, CAMHB broth
# [2] = tested on: Candida albicans; type: cell-based; conditions: code 145; RPMI-1640; 48 hours
# [3] = tested on: Staphylococcus aureus Met-S ATCC6538P; type: cell-based; conditions: code 100; CAMHB broth; 20-24 hours at 35° C.
# [4] = tested on: E. faecalis VanA; type: cell-based; conditions: code 560; CAMHB broth; 20-24 hours at 35° C.
# [5] = tested on: S. pyogenes; type: cell-based; conditions: code 49; Todd Hewitt broth; 20-24 hours at 35° C.
# [6] = tested on: E. faecium VanA; type: cell-based, Enterococcus faecium; conditions: code 569; CAMHB broth; 20-24 hours at 35° C.
# [7] = tested on: S. aureus ATCC 25923; type: cell-based, Staphylococcus aureus; conditions: CAMHB broth; 20-24 hours at 35° C.
# [8] = tested on: Enterococcus faecium VanS; type: cell-based; conditions: code 568, CAMHB broth
# [9] = tested on: S. aureus ATCC19636; type: cell-based, Staphylococcus aureus; conditions: code 819, CAMHB broth
# [10] = tested on: Staphylococcus aureus Met-R; type: cell-based; conditions: code 1400; CAMHB broth; 20-24 hours at 35° C.
smiles,measurement,setting,value
"CN[C@H](CC(C)C)C(=O)N[C@H]1C(=O)N[C@@H](CC(N)=O)C(=O)N[C@H]2C(=O)N[C@H]3C(=O)N[C@H](C(=O)N[C@H](C(=O)O)c4cc(O)cc(O)c4-c4cc3ccc4O)[C@H](O)c3ccc(c(Cl)c3)Oc3cc2cc(c3O[C@@H]2O[C@H](CO)[C@@H](O)[C@H](O)[C@H]2O[C@H]2C[C@](C)(N)[C@H](O)[C@H](C)O2)Oc2ccc(cc2Cl)[C@H]1O [VA, vancomycin]",Minimal inhibitory concentration (MIC),[1]; +serum 30% (bovine serum),2
same,Minimal inhibitory concentration (MIC),[1]; 20-24 hours at 35° C.,1
same,Minimal inhibitory concentration (MIC),[2],>128
same,Minimal inhibitory concentration (MIC),[3],0.25
same,Minimal inhibitory concentration (MIC),[4],2
same,Minimal inhibitory concentration (MIC),[5],0.25
same,Minimal inhibitory concentration (MIC),[6],>128
same,Minimal inhibitory concentration (MIC),[7],1
same,Minimal inhibitory concentration (MIC),[8]; +serum 30% (bovine serum),2
same,Minimal inhibitory concentration (MIC),[8]; 20-24 hours at 35° C.,2
same,Minimal inhibitory concentration (MIC),[9]; +serum 30% (bovine serum),1
same,Minimal inhibitory concentration (MIC),[9]; 20-24 hours at 35° C.,0.5
same,Minimal inhibitory concentration (MIC),[10],0.5
